# According to US6831190B1, “Guanidinomethyl cyclohexane carboxylic acid ester derivatives” (Teikoku Chemical Industries Co., Ltd., priority 1994, dated 2004):
# Read-outs that look alike come from different tables or passages of the source.
# Legend:
# Format in all cases: cell-based
# [1] = system: Helicobacter pylori ATCC 43504; assay: MIC, agar plating dilution (standard method of Japanese Chemotherapy Academy)
# Protocol: (§1) 1. Minimum Inhibitory Concentration (MIC) was measured in accordance with the standard method of Japanese Chemotherapy Academy (Chemotherapy, 29: 76-79, 1981). Sensitivity was measured with an agar plating dilution using Brain-Heart Infusion agar (Difco Co.) which was added 0.1% of cyclodextrin. […] of the solutions of the compounds which were obtained in examples of the present invention was prepared by dissolving in dimethylsulfoxide. […] Each of 1 ml of those prepared solutions was dispensed in share, after sterilization, 9 ml of sensitivity measuring medium which is kept at 50° C. was added to each, and they were sufficiently mixed. The mixture was used as a plate for measuring sensitivity. Brain Heart Infusion agar medium (Difco Co.), which was added 0.1% of cyclodextrin, was used as bacteria growing medium, and was cultured under microair at 37° C. for three days, and the number of bacteria thereof was adjusted to about 106/ml. This was used as a bacterial solution for inoculation. The medium was painted in each square about 2 cm with nichromic line loop. The medium was cultured under microair for three days at 37° C.
# [2] = system: Helicobacter pylori ATCC 43629; assay: as above
# Protocol: as §1
# [3] = system: Escherichia coli NIH JC-2; assay: MIC, standard method of Japanese Chemotherapy Academy; conditions: Objected Strain 3: Escherichia coli NIH JC-2
# Protocol: 1. Minimum Inhibitory Concentration (MIC) was measured in accordance with the standard method of Japanese Chemotherapy Academy (Chemotherapy, 29: 76-79, 1981).
# [4] = Objected Strain 1: Helicobacter pylori ATCC 43504
# [5] = Objected Strain 2: Helicobacter pylori ATCC 43629
# [6] = ATCC43504, Objected Strain 1: Helicobacter pylori ATCC 43504, read-out: MIC
# [7] = ATCC43629, Objected Strain 2: Helicobacter pylori ATCC 43629, read-out: MIC
"MIC [1, 4] [µg/mL]","MIC [2, 5] [µg/mL]",MIC [3] [µg/mL],"MIC [1, 6] [µg/mL]","MIC [2, 7] [µg/mL]","MIC ([3]; NIHJC2, read-out: MIC) [µg/mL]",Compound
6.25,6.25,>25,–,–,–,"CS(=O)(=O)O.N=C(N)NC[C@H]1CC[C@H](C(=O)Oc2c(C(=O)OCc3ccc(F)cc3)cc(Br)cc2-c2ccccc2)CC1 [Example 11, trans-4-guanidinomethyl cyclohexane carboxylic acid [4-bromo-2-(4-fluorobenzyloxycarbonyl)-6-phenylphenylester].methanosulforate]"
3.13,3.13,>25,–,–,–,"Cl.N=C(N)NC[C@H]1CC[C@H](C(=O)Oc2c(Cl)cc(Cl)cc2-c2ccccc2)CC1 [Example 12, trans-4-guanidinomethyl cyclohexane carboxylic acid (2,4-dicloro-6-phenylphenylester).hydrochloride]"
12.5,12.5,>25,–,–,–,"Cl.N=C(N)NC[C@H]1CC[C@H](C(=O)Oc2c(Cl)cc(-c3ccccc3)cc2Cl)CC1 [Example 13, trans-4-guanidinomethyl cyclohexane carboxylic acid (2,6-dichloro-4-phenylphenylester).hydrochloride]"
1.56,3.13,>25,–,–,–,"Cl.N=C(N)NC[C@H]1CC[C@H](C(=O)Oc2ccc(-c3ccc([N+](=O)[O-])cc3)cc2)CC1 [Example 22, trans-4-guanidinomethyl cyclohexane carboxylic acid [4-(4-nitrophenyl)phenylester].hydrochloride]"
0.78,1.56,>25,–,–,–,"Cl.N=C(N)NC[C@H]1CC[C@H](C(=O)Oc2ccc(-c3ccc(F)cc3)cc2)CC1 [Example 27, trans-4-guanidinomethyl cyclohexane carboxylic acid[4-(4-fluorophenyl)phenylester].hydrochloride]"
6.25,12.5,>25,–,–,–,"Cl.N=C(N)NC[C@H]1CC[C@H](C(=O)Oc2c(Cl)cc(Cl)c3ccccc23)CC1 [Example 29, trans-4-guanidinomethyl cyclohexane carboxylic acid (2,4-dichloro-1-naphthylester).hydrochloride]"
3.13,3.13,>25,–,–,–,"Cl.N=C(N)NC[C@H]1CC[C@H](C(=O)Oc2c(Cl)cc(Cl)c3ccccc23)CC1 [Example 30, trans-4-guanidinomethyl cyclohexane carboxylic acid (2,4-dichloro-1-naphthyleter).hydrochloride]"
3.13,0.78,>25,–,–,–,"Cl.N=C(N)NC[C@H]1CC[C@H](C(=O)Oc2ccc3cc(Br)ccc3c2)CC1 [Example 31, trans-4-guanidinomethyl cyclohexane carboxylic acid (6-bromo-2-naphthyl ester).hydrochloride]"
3.13,0.78,>25,–,–,–,"Cl.N=C(N)NC[C@H]1CC[C@H](C(=O)Oc2ccc(C3CCCCC3)cc2)CC1 [Example 32, trans-4-guanidinomethyl cyclohexane carboxylic acid (4-cyclohexyphenylester).hydrochloride]"
12.5,12.5,>25,–,–,–,"Cl.N=C(N)NC[C@H]1CC[C@H](C(=O)Oc2ccc(Cc3ccccc3)cc2)CC1 [Example 33, trans-4-guanidinomethyl cyclohexane carboxylic acid (4-benzylphenylester).hydrochloride]"
25,25,>25,–,–,–,"CC(C)(c1ccccc1)c1ccc(OC(=O)[C@H]2CC[C@H](CNC(=N)N)CC2)cc1.Cl [Example 34, trans-4-guanidinomethyl cyclohexane carboxylic acid[4-(1-methyl-1-phenylethyl)phenylester].hydrochloride]"
12.5,25,>25,–,–,–,"Cl.N=C(N)NC[C@H]1CC[C@H](C(=O)Oc2ccc(Oc3ccccc3)cc2)CC1 [Example 35, trans-4-guanidinomethyl cyclohexane carboxylic acid (4-phenoxyphenylester).hydrochloride]"
0.78,0.39,>25,–,–,–,"Cl.N=C(N)NC[C@H]1CC[C@H](C(=O)Oc2ccc(C=Cc3ccccc3)cc2)CC1 [Example 38, trans-4-guanidinomethyl cyclohexane carboxylic acid (4-styrylphenylester).hydrochloride]"

# Second part, the compound before the results:
Compound,"MIC [1, 4] [µg/mL]","MIC [2, 5] [µg/mL]",MIC [3] [µg/mL],"MIC [1, 6] [µg/mL]","MIC [2, 7] [µg/mL]","MIC ([3]; NIHJC2, read-out: MIC) [µg/mL]"
"Cl.N=C(N)NC[C@H]1CC[C@H](C(=O)Oc2ccccc2-c2ccccc2)CC1 [Compound 2, trans4-guanidinomethyl cyclohexane carboxylic acid (2-phenylphenylester)hydrochloride, reference compound]",25,25,>25,–,–,–
"Cl.N=C(N)NC[C@H]1CC[C@H](C(=O)Oc2cccc3ccccc23)CC1 [Compound 3, trans-4-guanidinomethyl cyclohexane carboxylic acid (1-naphthylester)hydrochloride, reference compound]",>25,>25,>25,–,–,–
"Cl.N=C(N)NC[C@H]1CC[C@H](C(=O)Oc2ccc3ccccc3c2)CC1 [Compound 4, trans-4-guanidinomethyl cyclohexane carboxylic acid (2-naphthylester)hydrochloride, reference compound]",25,25,>25,–,–,–
"N=C(N)NCC1CCC(C(=O)Oc2ccc(C(=O)OCc3ccccc3)cc2)CC1 (stereo not drawn) [Compound 5, reference compound]",–,–,–,12.5,6.25,> 25
"CCc1ccc(OC(=O)C2CCC(CNC(=N)N)CC2)cc1 (stereo not drawn) [Compound 6, reference compound]",–,–,–,25,25,> 25
"CC(C)(C)c1ccc(OC(=O)C2CCC(CNC(=N)N)CC2)cc1 (stereo not drawn) [Compound 7, reference compound]",–,–,–,25,12.5,> 25
"Cl.N=C(N)NC[C@H]1CC[C@H](C(=O)Oc2cccc(-c3ccccc3)c2)CC1 [Example 1, trans-4-guanidinomethyl cyclohexane carboxylic acid (3-phenylphenylester).hydrochloride]",12.5,6.25,>25,–,–,–
"Cl.N=C(N)NC[C@H]1CC[C@H](C(=O)Oc2ccc(-c3ccc(Br)cc3)cc2)CC1 [Example 4, trans-4-guanidinomethyl cyclohexane carboxylic acid [4-(4-bromophenyl)phenylester].hydrochloride]",1.56,0.39,>25,–,–,–
"COc1ccc(-c2ccc(OC(=O)[C@H]3CC[C@H](CNC(=N)N)CC3)cc2)cc1.Cl [Example 5, trans-4-guanidinomethyl cyclohexane carboxylic acid [4-(4-methoxyphenyl)phenylester].hydrochloride]",3.13,1.56,>25,–,–,–
"Cl.N=C(N)NC[C@H]1CC[C@H](C(=O)Oc2ccc(-c3ccccc3)cc2Cl)CC1 [Example 6, trans-4-guanidinomethyl cyclohexane carboxylic acid (2-chloro-4-phenylphenylester).hydrochloride]",6.25,1.56,>25,–,–,–
"Cl.N#Cc1ccc(-c2ccc(OC(=O)[C@H]3CC[C@H](CNC(=N)N)CC3)cc2)cc1 [Example 7, trans4-guanidinomethyl cyclohexane carboxylic acid [4-(4-cyanophenyl)phenylester].hydrochloride]",3.13,3.13,>25,–,–,–
"Cl.N=C(N)NC[C@H]1CC[C@H](C(=O)Oc2c(C(=O)OCc3ccccc3)cccc2-c2ccccc2)CC1 [Example 9, trans-4-guanidinomethyl cyclohexane carboxylic acid (2-benzyloxycarbonyl-6-phenylphenylester).hydrochloride]",6.25,3.13,>25,–,–,–
"CS(=O)(=O)O.N=C(N)NC[C@H]1CC[C@H](C(=O)Oc2c(C(=O)OCc3ccc(F)cc3)cccc2-c2ccccc2)CC1 [Example 10, trans-4-guanidinomethyl cyclohexane carboxylic acid [2-(4-fluorobenzyloxycarbonyl)-6-phenylphenylester].methansulfonate]",6.25,6.25,>25,–,–,–
"Cl.N=C(N)NC[C@H]1CC[C@H](C(=O)Oc2ccc(OCc3ccccc3)cc2)CC1 [Example 37, trans-4-guanidinomethyl cyclohexane carboxylic acid (4-benzyloxyphenylester).hydrochloride]",12.5,3.13,>25,–,–,–
